Test results published in the supplement of paper PMC10307832.

Experiments:
Assay in all cases: relative viability (nuclei count vs DMSO), 5 days (fraction); higher = more cells survive
H3255 = tested on: H3255
Procedure, shortened: (§1)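 Relative viability divides the nuclei count in treated wells by that in vehicle wells. Lung cancer cell lines were seeded in 1536-well plates, dosed by pin tool the next day, and fixed and stained after 5 days in one step with final 0.05% Triton X-100, 1% formaldehyde and 1 ug/ml Hoechst. Dosing was a single drug or a fixed anchor-drug dose plus five library-drug doses (not always all listed) in √10 steps, and values are medians of duplicate plates imaged at 4×.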

NCI-H1650 = tested on: NCI-H1650
Procedure, shortened: as §1

CAL-12T = tested on: CAL-12T
Procedure, shortened: as §1

NCI-H2009 = tested on: NCI-H2009
Procedure, shortened: as §1

NCI-H2087 = tested on: NCI-H2087
Procedure, shortened: as §1

LU99A = tested on: LU99A
Procedure, shortened: as §1

UMC-11 = tested on: UMC-11
Procedure, shortened: as §1

SK-LU-1 = tested on: SK-LU-1
Procedure, shortened: as §1

NCI-H520 = tested on: NCI-H520
Procedure, shortened: as §1

SK-MES-1 = tested on: SK-MES-1
Procedure, shortened: as §1

ABC-1 = tested on: ABC-1
Procedure, shortened: as §1

NCI-H1734 = tested on: NCI-H1734
Procedure, shortened: as §1

EKVX = tested on: EKVX
Procedure, shortened: as §1

EMC-BAC-2 = tested on: EMC-BAC-2
Procedure, shortened: as §1

NCI-H2085 = tested on: NCI-H2085
Procedure, shortened: as §1

BEN = tested on: BEN
Procedure, shortened: as §1

LC-2-ad = tested on: LC-2-ad
Procedure, shortened: as §1

NCI-H661 = tested on: NCI-H661
Procedure, shortened: as §1

SW 1573 = tested on: SW 1573
Procedure, shortened: as §1

NCI-H1792 = tested on: NCI-H1792
Procedure, shortened: as §1

NCI-H1993 = tested on: NCI-H1993
Procedure, shortened: as §1

NCI-H838 = tested on: NCI-H838
Procedure, shortened: as §1

NCI-H1355 = tested on: NCI-H1355
Procedure, shortened: as §1

Nc1cccc2c1CN(C1CCC(=O)NC1=O)C2=O (stereo unspecified) [Lenalidomide] + CS(=O)(=O)N1CCN(Cc2cc3nc(-c4cccc5[nH]ncc45)nc(N4CCOCC4)c3s2)CC1 [Pictilisib] (partner 1 µM)
relative viability (H3255; first compound 0.253 µM): 0.459 | relative viability (H3255; first compound 0.8 µM): 0.519 | relative viability (H3255; first compound 2.53 µM): 0.526 | relative viability (H3255; first compound 8 µM): 0.406 | relative viability (NCI-H1650; first compound 0.253 µM): 0.562 | relative viability (NCI-H1650; first compound 0.8 µM): 0.441 | relative viability (NCI-H1650; first compound 2.53 µM): 0.731 | relative viability (NCI-H1650; first compound 8 µM): 0.637 | relative viability (CAL-12T; first compound 0.253 µM): 0.406 | relative viability (CAL-12T; first compound 2.53 µM): 0.561 | relative viability (CAL-12T; first compound 8 µM): 0.358 | relative viability (NCI-H2009; first compound 0.253 µM): 0.852 | relative viability (NCI-H2009; first compound 0.8 µM): 1.01 | relative viability (NCI-H2009; first compound 2.53 µM): 0.941 | relative viability (NCI-H2009; first compound 8 µM): 0.768 | relative viability (NCI-H2087; first compound 0.253 µM): 0.982 | relative viability (NCI-H2087; first compound 0.8 µM): 0.436 | relative viability (NCI-H2087; first compound 2.53 µM): 0.972 | relative viability (NCI-H2087; first compound 8 µM): 0.732 | relative viability (LU99A; first compound 0.253 µM): 0.31 | relative viability (LU99A; first compound 0.8 µM): 0.324 | relative viability (LU99A; first compound 2.53 µM): 0.371 | relative viability (LU99A; first compound 8 µM): 0.238 | relative viability (UMC-11; first compound 0.253 µM): 0.893 | relative viability (UMC-11; first compound 0.8 µM): 0.512 | relative viability (UMC-11; first compound 2.53 µM): 0.819 | relative viability (UMC-11; first compound 8 µM): 0.627 | relative viability (SK-LU-1; first compound 0.253 µM): 0.602 | relative viability (SK-LU-1; first compound 0.8 µM): 0.58 | relative viability (SK-LU-1; first compound 2.53 µM): 0.704 | relative viability (SK-LU-1; first compound 8 µM): 0.502 | relative viability (NCI-H520; first compound 0.253 µM): 0.353 | relative viability (NCI-H520; first compound 0.8 µM): 0.362 | relative viability (NCI-H520; first compound 2.53 µM): 0.293 | relative viability (NCI-H520; first compound 8 µM): 0.259 | relative viability (SK-MES-1; first compound 0.253 µM): 0.373 | relative viability (SK-MES-1; first compound 0.8 µM): 0.482 | relative viability (SK-MES-1; first compound 2.53 µM): 0.403 | relative viability (SK-MES-1; first compound 8 µM): 0.336 | relative viability (ABC-1; first compound 0.253 µM): 0.724 | relative viability (ABC-1; first compound 0.8 µM): 0.626 | relative viability (ABC-1; first compound 2.53 µM): 0.719 | relative viability (ABC-1; first compound 8 µM): 0.629 | relative viability (NCI-H1734; first compound 0.253 µM): 0.438 | relative viability (NCI-H1734; first compound 0.8 µM): 0.489 | relative viability (NCI-H1734; first compound 2.53 µM): 0.465 | relative viability (NCI-H1734; first compound 8 µM): 0.329 | relative viability (EKVX; first compound 0.253 µM): 0.456 | relative viability (EKVX; first compound 0.8 µM): 0.39 | relative viability (EKVX; first compound 2.53 µM): 0.401 | relative viability (EKVX; first compound 8 µM): 0.366 | relative viability (EMC-BAC-2; first compound 0.253 µM): 0.532 | relative viability (EMC-BAC-2; first compound 0.8 µM): 0.474 | relative viability (EMC-BAC-2; first compound 2.53 µM): 0.535 | relative viability (EMC-BAC-2; first compound 8 µM): 0.411 | relative viability (NCI-H2085; first compound 0.253 µM): 0.451 | relative viability (NCI-H2085; first compound 0.8 µM): 0.409 | relative viability (NCI-H2085; first compound 2.53 µM): 0.428 | relative viability (NCI-H2085; first compound 8 µM): 0.371 | relative viability (BEN; first compound 0.253 µM): 0.69 | relative viability (BEN; first compound 0.8 µM): 0.504 | relative viability (BEN; first compound 2.53 µM): 0.644 | relative viability (BEN; first compound 8 µM): 0.436 | relative viability (LC-2-ad; first compound 0.253 µM): 0.434 | relative viability (LC-2-ad; first compound 0.8 µM): 0.487 | relative viability (LC-2-ad; first compound 2.53 µM): 0.467 | relative viability (LC-2-ad; first compound 8 µM): 0.538 | relative viability (NCI-H661; first compound 0.253 µM): 0.59 | relative viability (NCI-H661; first compound 0.8 µM): 0.369 | relative viability (NCI-H661; first compound 2.53 µM): 0.44 | relative viability (NCI-H661; first compound 8 µM): 0.329 | relative viability (SW 1573; first compound 0.253 µM): 0.518 | relative viability (SW 1573; first compound 0.8 µM): 0.483 | relative viability (SW 1573; first compound 2.53 µM): 0.504 | relative viability (SW 1573; first compound 8 µM): 0.524 | relative viability (NCI-H1792; first compound 0.253 µM): 0.298 | relative viability (NCI-H1792; first compound 0.8 µM): 0.192 | relative viability (NCI-H1792; first compound 2.53 µM): 0.264 | relative viability (NCI-H1792; first compound 8 µM): 0.184 | relative viability (NCI-H1993; first compound 0.253 µM): 0.824 | relative viability (NCI-H1993; first compound 0.8 µM): 0.827 | relative viability (NCI-H1993; first compound 2.53 µM): 0.872 | relative viability (NCI-H1993; first compound 8 µM): 0.803 | relative viability (NCI-H838; first compound 0.253 µM): 0.505 | relative viability (NCI-H838; first compound 0.8 µM): 0.318 | relative viability (NCI-H838; first compound 2.53 µM): 0.518 | relative viability (NCI-H838; first compound 8 µM): 0.387 | relative viability (NCI-H1355; first compound 0.253 µM): 0.419 | relative viability (NCI-H1355; first compound 0.8 µM): 0.258 | relative viability (NCI-H1355; first compound 2.53 µM): 0.429 | relative viability (NCI-H1355; first compound 8 µM): 0.259
